We go through 13 compounds from patent US4150153A, “1-(Naphthylethyl)imidazole derivatives” (Syntex (U.S.A.) Inc., priority 1977, dated 1979).

Series [1] has as its system male Hilltop ICR-derived mice. As to the kind of experiment: Maximal Electroshock Test in Mice. The class given is in vivo. The note with it: intraperitoneally 15 minutes prior to transcorneal maximal electroshock (50 milliamps, 0.2 seconds), antagonizing tonic extension, in parentheses 95% confidence limits; for ED50: Mus musculus, ip, 0.25 h. On the procedure: Maximal Electroshock Test in Mice
This test was performed in the standard manner, essentially as described by Swinyard et al., J. Pharm.
Groups of 10 male Hilltop ICR-derived mice weighing 20-30 grams were dosed intraperitoneally with a solution or suspension of drug in saline 15 minutes prior to a transcorneal maximal electroshock (50 milliamps, 0.2 seconds).

Series [2] is described as follows: lethalities in mice after a single intraperitoneal dose. The note with it: mouse, in vivo, ip, single dose intraperitoneally, lethalities determined after five days, doses 1-1,000 mg/kg. How it is done:
Groups of 3 male ICR derived mice weighing 18-24 grams were given a single dose of compound intraperitoneally. The following doses were employed: 1, 3, 10, 30, 100, 300 or 1,000 mg/kg. After five days lethalities were determined.

As a reminder, the ED50 is the dose at which the effect has come halfway, by size or by number of responders. The term LD50 denotes the dose at which mortality reaches 50%.

As to `OC(Cn1ccnc1)c1cccc2ccccc12` (stereo not drawn) [1-[2-hydroxy-2-(1-naphthyl)ethyl]imidazole], the ED50 in series [1] turned out to be 37 mg/kg. This compound also had an LD50 at 120 h in series [2] of 300 to 1000 mg/kg.

On to `CC1CSC(Cn2ccnc2)(c2ccc3ccccc3c2)S1.Cl` (stereo not drawn) [1-[2,2-(1,2-propylenedithio)-2-(2-naphthyl)ethyl]imidazole hydrochloride], for which the “ED50 (95% confidence limits)” value in series [1] is 65 (55-73) mg/kg.

As to `c1ccc2cc(C3(Cn4ccnc4)OCCCO3)ccc2c1` [1-[2,2-(1,3-propylenedioxy)-2-(2-naphthyl)ethyl]imidazole], in series [1], the ED50 was found to be 17 mg/kg.

`O=C(Cn1ccnc1)c1ccc2ccccc2c1` [1-(2-naphthoylmethyl)imidazole]: the ED50 in series [1] worked out at 23 mg/kg. This compound also gave a median lethal dose (LD50) at 120 h in series [2] of 100 to 300 mg/kg.

On to `CSC(Cn1ccnc1)(SC)c1ccc2ccccc2c1` [1-[2,2-bis(methylthio)-2-(2-naphthyl)ethyl]imidazole], for which the ED50 in series [1] was 32 mg/kg.

With `OC(Cn1ccnc1)c1ccc2ccccc2c1` (stereo not drawn) [1-[2-hydroxy-2-(2-naphthyl)ethyl]imidazole], the 50% effective dose (ED50) in series [1] came to 74 mg/kg. This compound also yielded a 50% lethal dose (LD50) at 120 h in series [2] of 300 to 1000 mg/kg.

`O=C(Cn1ccnc1)c1cccc2ccccc12` [1-(1-naphthoylmethyl)imidazole]: the ED50 in series [1] is roughly 60 mg/kg. Further, the 50% lethal dose (LD50) at 120 h in series [2] was in the range of 100 to 300 mg/kg.

On to `c1ccc2cc(C3(Cn4ccnc4)OCCO3)ccc2c1` [1-[2,2-ethylenedioxy-2-(2-naphthyl)ethyl]imidazole], for which the ED50 in series [1] turned out to be 12 mg/kg. In series [2], the median lethal dose (LD50) at 120 h was in the range of 100 to 300 mg/kg.

With `CCSC(Cn1ccnc1)(SCC)c1ccc2ccccc2c1` [1-[2,2-bis(ethylthio)-2-(2-naphthyl)ethyl]imidazole], the ED50 in series [1] amounted to 35 mg/kg.

With `c1ccc2c(C3(Cn4ccnc4)OCCO3)cccc2c1` [1-[2,2-ethylenedioxy-2-(1-naphthyl)ethyl]imidazole], in series [1], the ED50 was 19 mg/kg.

Turning to `CC1(C)COC(Cn2ccnc2)(c2ccc3ccccc3c2)OC1` [1-[2,2-(2,2-dimethyl-1,3-propylenedioxy)-2-(2-naphthyl)ethyl]imidazole], the ED50 in series [1] amounted to 26 mg/kg.

Consider `CC1CCOC(Cn2ccnc2)(c2ccc3ccccc3c2)O1` (stereo not drawn) [1-[2,2-(1-methyl-1,3-propylenedioxy)-2-(2-naphthyl)ethyl]imidazole], for which the ED50 in series [1] was 19 mg/kg.

Regarding `c1ccc2cc(C3(Cn4ccnc4)SCCS3)ccc2c1` [1-[2,2-ethylenedithio-2-(2-naphthyl)ethyl]imidazole], the ED50 in series [1] is 26 mg/kg.
